Data as given in publication PMC10386196, “A First-Class Degrader Candidate Targeting Both KRAS G12D and G12V Mediated by CANDDY Technology Independent of Ubiquitination” (Molecules, 2023).
Square brackets hold non-standard residues; d marks the D form. Peptide text beside a SMILES is read from it. Nle = CCCC[C@H](N)C(=O)O

What was measured:
proteasome β5 = proteasome β5 (Homo sapiens, UniProt P28074); test: Inhibition of proteasome β5 (chymotrypsin-like) activity, Suc-LLVY-AMC substrate; format: biochemical; conditions: SE in parentheses, n = 2
Method: (§1) Reaction time (min) Reaction time (min)
(§2) Figure S1. Proteasome Inhibitors Modified as Degradation Tags, Related to Figures 2
(§3) (A) Chymotrypsin-like (β5) , trypsin-like (β2) and caspase-like (β1) activities of the pr oteasome were monitor ed by Suc- LLVY-
(§4) AMC (β5 substrate) , Bz- VGR-AMC (β2 substr ate) and Z -LLE-AMC (β1 substrate), respectively. AMC fluorescence was
(§5) m onitor ed by a plate reader with excitation and emission filter s of 360 nm and 460 nm, respectively (DMSO, 30 min = 1) […]

proteasome β2 = proteasome β2 (Homo sapiens, UniProt Q99436); test: Inhibition of proteasome β2 (trypsin-like) activity, Bz-VGR-AMC substrate; format: biochemical; conditions: SE in parentheses, n = 2
Method: as §1, §2, §3, §4, §5

proteasome β1 = proteasome β1 (Homo sapiens, UniProt P28072); test: Inhibition of proteasome β1 (caspase-like) activity, Z-LLE-AMC substrate; format: biochemical; conditions: SE in parentheses, n = 2
Method: as §1, §2, §3, §4, §5

ecDHFR [1] = target: T1, ecDHFR (Escherichia coli, UniProt P0ABQ4); test: Cellular thermal shift assay (CETSA) for ecDHFR in HeLa cells; format: binding; conditions: ecDHFR-HA-GFP-expressing HeLa cells, 3 h treatment
T1 construct: expressed in transfected cells; host or cells: HeLa cells (bicistronic construct co-expressing DsRed)
T1 sequence (P0ABQ4 whole entry): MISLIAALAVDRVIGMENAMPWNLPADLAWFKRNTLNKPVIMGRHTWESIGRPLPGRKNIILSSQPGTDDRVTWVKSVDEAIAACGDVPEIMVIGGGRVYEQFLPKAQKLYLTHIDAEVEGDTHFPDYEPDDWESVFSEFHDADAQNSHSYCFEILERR
Method: Figure 2 Proof of principle for the CANDDY Strategy. (A) Structures of degraders 1–3 constructed with TMP and each degradation tag (CANDDY_MLN, CANDDY_ALLN, or CANDDY_BTZ). (B) Comparison of proteasomal inhibitory activity of b2 by 1–3 and each proteasome inhibitor. […] Cell extraction was treated with heat for 3 min and then analyzed via immunoblotting. (D) Degradation rates of ecDHFR by 1–3. The same procedure as in (E) was performed except for 24 h. (E) ecDHFR degradation by 1 for 24 h. The ratio of ecDHFR-HA-GFP/DsRed was detected via flow cytometry.

[2] = target: β5/β2/β1 of the proteasome (Homo sapiens, UniProt P28072+P28074+Q99436); test: Proteasomal inhibitory activity, stated in words for all subunits; format: biochemical; conditions: listed as TMP-CANDDY_MLN (1)
Method: as §1, §2, §3, §4, §5

ecDHFR [3] = target: T1, ecDHFR; format: cell-based
Method: Cell extraction was treated with heat for 3 min and then analyzed via immunoblotting. […] The same procedure as in (E) was performed except for 24 h. […] The ratio of ecDHFR-HA-GFP/DsRed was detected via flow cytometry.
HeLa cells co-expressed ecDHF R- HA-GF P and DsRed from a bicistronic construct.
(C) HeLa cells co-expressed ecDHFR-HA-GFP and DsRed from a bicistronic construct. Target-expressing HeLa cells were
treated with a CANDDY molecule (1).

[4] = Solubility (statement in words); format: physicochemical; conditions: reason not used as in vivo control
KRAS G12D [5] = target: T2, KRAS G12D (Homo sapiens, UniProt P01116, G12D); test: KRAS degradation in a cell-free system with 26S proteasome; format: biochemical; conditions: only 26S proteasome and target protein, 3 h at 37 °C
Method: KRAS G12D (final concentration: 5 ng/µL) and 26S proteasome (final concentration: 8 nM) were incubated with TUS-007 (10, 20, 40 µM), RAS-SOS inhibitor (40 µM), RAS-SOS-NH2 (40 µM), or DMSO in 20 mM Tris-HCl buffer (pH 7.5) containing 20% glycerol for 3 h at 37 °C. To assess the effect of MLN on chemical knockdown, KRAS G12D and 26S proteasome were incubated with DMSO or TUS-007 40 µM in the presence or absence of MLN (1 µM) in the same condition. After centrifugation at 14,000× g for 10 min, the supernatants were analyzed via SDS-PAGE, followed by immunoblotting using an anti-KRAS antibody (1:1000, WH0003845MI, Sigma-Aldrich).

KRAS G12D [6] = target: KRAS G12D; set-up: method as in PMID 22566140; conditions: cited from earlier work
KRAS G12D [7] = target: T2, KRAS G12D; test: KRAS G12D-HA-GFP degradation in HeLa cells; format: cell-based; set-up: expressed in transfected cells; host or cells: HeLa cells; conditions: exogenously expressed, flow cytometry and immunoblotting
Method: (§6) Figure 3 RAS Chemical Knockdown in vitro. (A) Structures of RAS-SOS inhibitor (4), RAS-SOS-NH2 (5), and TUS-007 as a RAS degrader. (B,C) Assessing the binding affinity of TUS-007 to targets KRAS (G12D, G12V, or wild-type) (B) and proteasome β5 (C) using CETSA. Recombinant KRAS or PSMB5 was treated with vehicle, 4, or TUS-007 for 30 min. The mixture was treated with heat and then analyzed via immunoblotting. […] KRAS-HA-GFP and DsRed-expressing HeLa cells were treated and analyzed via immunoblotting. (F) The same procedure was performed as in (D) (mean ± SEM; n = 3) except for 48 h. (G) Ubiquitination-independent proteasomal KRAS G12D degradation. KRAS G12D-HA-GFP and DsRed-expressing HeLa cells were co-treated with TUS-007 and the NAE inhibitor ([…], […]) or PYR-41 (E1 inhibitor, […]) and then analyzed via flow cytometry. […]
(§7) β5 activity β2 activity β1 activity […]
(§8) Figure S3. Proteasomal Inhibitory Activities of TUS-007 and Degradation of KRAS by TUS-007, Related to Figure 3 […]
(§9) Degradation of mutant (G12D and G12V) and wild- type KRAS pr oteins by TUS- 007 was rescued by treatment with the proteasome inhibitor M LN2238 ([…]). […] KRAS G12D-HA-GFP and DsRed-expressing HeLa cells were co-treated with TUS-007 and 17-AAG (HSP90 inhibitor, 2 ∝M), or VER-155008 (HSP70 inhibitor , 2 ∝M) for 24 h and then analyzed by flow cytometry.
Target sequence in this assay (P01116 1-188 isoform P01116-2 G12D): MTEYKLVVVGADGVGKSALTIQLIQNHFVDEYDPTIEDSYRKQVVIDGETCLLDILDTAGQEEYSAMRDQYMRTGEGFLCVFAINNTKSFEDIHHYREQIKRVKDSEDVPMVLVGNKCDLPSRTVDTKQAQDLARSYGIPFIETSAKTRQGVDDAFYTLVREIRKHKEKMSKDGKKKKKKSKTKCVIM

wild-type KRAS = target: T3, wild-type KRAS (Homo sapiens, UniProt P01116); test: Wild-type KRAS-HA-GFP degradation in HeLa cells; format: cell-based; conditions: exogenously expressed, flow cytometry and immunoblotting
T3 construct: expressed in transfected cells; host or cells: HeLa cells
T3 sequence (P01116 1-188 isoform P01116-2): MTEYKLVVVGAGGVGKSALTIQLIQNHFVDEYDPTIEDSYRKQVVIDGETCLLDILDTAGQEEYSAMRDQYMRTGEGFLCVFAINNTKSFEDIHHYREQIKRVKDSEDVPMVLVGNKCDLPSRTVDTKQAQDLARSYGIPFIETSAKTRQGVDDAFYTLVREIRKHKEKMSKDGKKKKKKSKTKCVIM
Method: as §6, §7, §8, §9

KRAS G12V = target: T4, KRAS G12V (Homo sapiens, UniProt P01116, G12V); test: KRAS G12V-HA-GFP degradation in HeLa cells; format: cell-based; conditions: exogenously expressed, flow cytometry and immunoblotting
T4 construct: expressed in transfected cells; host or cells: HeLa cells
T4 sequence (P01116 1-188 isoform P01116-2 G12V): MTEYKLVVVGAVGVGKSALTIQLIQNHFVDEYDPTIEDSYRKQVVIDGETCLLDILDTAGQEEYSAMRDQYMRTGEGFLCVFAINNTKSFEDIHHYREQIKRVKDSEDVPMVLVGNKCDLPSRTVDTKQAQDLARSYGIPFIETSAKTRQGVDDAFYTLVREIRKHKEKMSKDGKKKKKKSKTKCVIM
Method: as §6, §7, §8, §9

Row | Structure (SMILES) | IC50 (proteasome β5) | IC50 (proteasome β2) | IC50 (proteasome β1) | target affinity for ecDHFR compared with TMP (CETSA) (ecDHFR [1]) | further results
1 | CCCC[C@@H](C=O)NC(=O)[C@H](CC(C)C)NC(=O)[C@H](CC(C)C)NC(C)=O [ALLN, reference compound] (Ac-Leu-Leu-[Nle]-aldehyde) | 1 µM | 4.3 µM | 9.8 µM | – | –
2 | CC(C)C[C@H](NC(=O)CNC(=O)c1cc(Cl)ccc1Cl)B(O)O [MLN2238, reference compound] | – | 8.9 µM | 0.029 µM | – | –
3 | COc1cc(Cc2cnc(N)nc2N)cc(OC)c1OCC(=O)NCCCCCCNC(=O)[C@H](CC(C)C)NC(=O)CNC(=O)c1cc(Cl)ccc1Cl [compound 1] | > 160 µM | > 160 µM | > 160 µM | more efficient | proteasomal inhibitory activity (β5, β2, β1) [2]: almost no proteasomal inhibitory activity; ecDHFR degradation (ecDHFR [3]; HeLa cells, 24 h, immunoblotting and flow cytometry (GFP/DsRed)): highest target degradation efficiency; time dependence of ecDHFR degradation (ecDHFR [3]; HeLa cells, flow cytometry): time-dependent ecDHFR degradation; ecDHFR degradation on co-treatment with inhibitors of E1 or E3 (ecDHFR [3]; co-treatment with NAE inhibitor (E3) or PYR-41 (E1), flow cytometry): did not inhibit ecDHFR degradation
4 | CCCC[C@H](NC(=O)[C@H](CC(C)C)NC(=O)[C@H](CC(C)C)NC(C)=O)C(=O)NCCCCCCNC(=O)COc1c(OC)cc(Cc2cnc(N)nc2N)cc1OC [compound 2] | 46.2 µM | > 160 µM | > 160 µM | more efficient | –
5 | COc1cc(Cc2cnc(N)nc2N)cc(OC)c1OCC(=O)NCCCCCCNC(=O)[C@H](CC(C)C)NC(=O)[C@H](Cc1ccccc1)NC(=O)c1cnccn1 [compound 3] | > 160 µM | > 160 µM | > 160 µM | lower | –
6 | CC[C@H](C)[C@H](N)C(=O)Nc1ccc2nc(Cc3c[nH]c4ccccc34)[nH]c2c1 [compound 4, reference compound] | – | – | – | – | solubility [4]: low solubility; degradation of KRAS G12D in cell-free system (KRAS G12D [5]): not; Kd (KRAS G12D [6]): 190 µM
7 | CC[C@H](C)[C@H](NC(=O)CCCCCCN)C(=O)Nc1ccc2[nH]c(Cc3c[nH]c4ccccc34)nc2c1 [compound 5] | – | – | – | – | solubility [4]: low solubility; KRAS G12D degradation in HeLa cells (KRAS G12D [7]): no degradation; degradation of KRAS G12D in cell-free system (KRAS G12D [5]): not; wild-type KRAS degradation in HeLa cells (wild-type KRAS): no degradation; KRAS G12V degradation in HeLa cells (KRAS G12V): no degradation
